# Test results reported in US10196357B2, “Biaryl compositions and methods for modulating a kinase cascade” (Athenex, Inc., priority 2007, dated 2019).
# Entries after “also recorded” stand apart in the source; their conditions may differ.
# Legend:
# [1] = test system: osteoclast precursors derived from spleen cells; experiment: osteoclast formation from spleen cells; format: cell-based; details: 5 days, RANKL and M-CSF, vs untreated control
# Method: To determine the effect of the compounds on osteoclast formation, the compounds were added to osteoclast precursors derived from spleen cells. For the generation of spleen-derived osteoclasts, spleen cells comprising osteoclast precursors were treated with Rapamycin, KX1-141, KX2-328 (AstraZeneca compound), or KX1-329 for 5 days in the presence of receptor activator of nuclear factor-xB ligand (RANKL) and macrophage colony-stimulating factor (M-CSF). In in vitro murine or human osteoclast models, soluble RANKL enables osteoclast precursors to differentiate in the presence of M-CSF (Quinn, et al.; 1998, Endocrinology, 139, 4424-4427; Jimi, et al.; 1999, J. Immunol., 163, 434-442). The untreated control cells were incubated in the presence of RANKL and M-CSF alone. Rapamycin was used as a positive control for the inhibition of osteoclast formation.
# For generating spleen-derived osteoclasts, spleen cells were treated as described above. […] Cells were then stained with the osteoclast marker, tartrate-resistant acid phosphatase (TRAP) to visualize differentiated cells. The numbers of TRAP-positive osteoclasts were counted.
# [2] = noise-induced hearing loss; format: in vivo, Chinchillas; details: chinchilla ears treated on round window, 4 kHz band noise 105 dB SPL 4 h, days 1, 7, 21; relative to control ears
# Method: Chinchillas (N=6) were used in studies of noise-induced hearing loss. The animals' hearing sensitivity was measured using standard electrophysical techniques before the experimental manipulation. […] Animals were anesthetized, the auditory bullae were opened, and the left and right cochleas were visualized. The round window leading to the scala tympani of the cochlea was used as the access point for drug application. Animals were treated with KX1-004, KX1-141, KX1-329 or KX2-328 (a non-ATP competitive inhibitor from AstraZeneca, KX2-238), emulsified in DMSO, in 1000 mM of saline solution, which was placed on the round window of one ear. KX1-004:
# A control solution of 3 mM DMSO in 1000 mM of saline solution was placed on the round window of the other ear. The solution was allowed to set on the round window for 30 minutes, then the auditory bullae were closed. […] Following the noise exposure, the animals' hearing was tested at day 1, day 7, and day 21 to determine evoked potential threshold shifts. Permanent threshold shift was assessed at day 21.
# FIGS. 10-12 show the average threshold shifts for animals treated with KX1-004, KX1-141, KX1-329 or KX2-328.
# [3] = test system: resorption pits on bone slices; experiment: resorption pit formation on bone slices; format: cell-based; details: vs untreated control
# Method: During the resorption of bone, osteoclasts form resorption pits. To determine the effects of the compounds on resorption pit formation on bone slices, the bone slices were treated with Rapamycin, KX1-141, KX2-328, or KX1-329, as described above. […] The number of resorption pits on the bone slices was determined.
# Bone slices were treated as indicated above. […] The bone slices were stained with Toluidine Blue to reveal resorption pits, which are indicators of osteoclast-mediated resorption of bone.
# HT29 cell line = experiment: BrdU cell growth inhibition, HT29; format: cell-based, human; details: Homo sapiens
# Summary of the method: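 HT29 colon carcinoma cells treated with compounds diluted from 20 mM DMSO stocks into DMEM/10% FBS. Proliferation read as colorimetric BrdU incorporation ELISA; GI calculated relative to untreated cells at time 0 and control cells at day n, with GI50 extrapolated. Net cell loss below time-0 level scored as cytotoxicity.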
# osteoclasts = experiment: osteoclast survival; format: cell-based; details: 48 hours, RANKL and M-CSF, vs untreated control
# Method: To determine the effect of the compounds on osteoclast survival, osteoclasts were treated with Rapamycin, KX1-141, KX2-328, or KX1-329 for 48 hours in the presence of RANKL and M-CSF. The untreated, control cells were incubated in the presence of RANKL and M-CSF alone. Rapamycin was used as a positive control for the inhibition of osteoclast survival.
# As described above, osteoclasts were treated with Rapamycin, KX1-141, KX2-328, or KX1-329 for 48 hours in the presence of RANKL and M-CSF. […] Cells were then stained with TRAP and the number of TRAP-positive osteoclasts were counted.
# c-Src 3T3 cells = experiment: BrdU cell growth inhibition, c-Src 3T3; format: cell-based, mouse; details: Mus musculus; for GI50: c-Src 3T3 (c-Src527F/NIH3T3) cells, read-out: GI50
# Summary of the method: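 c-Src 3T3 cells on poly-D-lysine plates in DMEM with 2% FBS, L-glutamine, pyruvate and 10 mM HEPES. Compounds came from 20 mM DMSO stocks diluted in DMEM/10% FBS. Proliferation was read by colorimetric BrdU-incorporation ELISA, and GI50 was extrapolated from growth relative to time-zero and untreated controls.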
# osteoblasts = experiment: osteoblast protein expression; format: cell-based
# Method: The enzyme alkaline phosphatase has been used as an indicator of osteoblast activity, as it is involved in making phosphate available for calcification of bone.
# To determine the effects of the compounds on osteoblast activity and protein expression, osteoblasts were treated with medium, DMSO, BMP2, KX1-141, KX2-328, or KX1-329 as indicated above. The protein concentration in cell lysates was determined (μg/10 μl) (FIG. 23).
# [4] = test system: osteoclasts on bone slices; experiment: osteoclast formation on bone slices; format: cell-based; details: vs untreated control
# Method: To determine the effects of the compounds on osteoclast formation on bone slices, the bone slices were treated with Rapamycin, KX1-141, KX2-328, or KX1-329. […] The number of osteoclasts on the bone slices were counted.
# Bone slices were treated as indicated above. […] The bone slices were then stained with TRAP.
# HuH7 = experiment: MTT growth inhibition, HuH7; format: cell-based, human; details: Homo sapiens, Huh-7, 78 h
# Method: Samples of the test compounds were formulated in 100% DMSO to obtain 20 mM stock solutions; stored @ 4° C. The IC50s and IC80s were determined as described below. Huh7, WRL-68, PLC/PRF/5, Hep 3B, and Hep G2 human cancer lines were routinely cultured and maintained in a basal medium containing 2% FBS @ 37° C., 5% CO2. […] The assay medium was basal medium/1.5% FBS. Cells were cultured overnight in 96-well plates at 37° C., 5% CO2 prior to KX2-391. MSA and Dasatinib addition. […] 10 μL of 20× dilutions were added to the appropriate wells (n=3) containing 190 μL cancer cell line; 6561 nM to 0.012 nM range of final concentrations. Vehicle control contained cells, no sample. Medium control contained cells, no sample, 0.03% DMSO (highest DMSO concentration present in samples). […] On day 3, 10 μL MTT (5 mg/mL) were added to each well. Cells were incubated in the presence of MTT for 4 hours @ 37° C., 5% CO2. […] Cells were then incubated overnight @ 37°, 5% CO2. OD570 measurements were taken using BioTek Synergy HT multiplatform microplate reader. Growth inhibition curves IC50s and IC80s were determined using GraphPad Prism 5 statistical software.
# WRL-68 = experiment: MTT growth inhibition, WRL-68; format: cell-based, human; details: Homo sapiens, WRL68, 78 h
# Method: (§1) Samples of the test compounds were formulated in 100% DMSO to obtain 20 mM stock solutions; stored @ 4° C. The IC50s and IC80s were determined as described below. Huh7, WRL-68, PLC/PRF/5, Hep 3B, and Hep G2 human cancer lines were routinely cultured and maintained in a basal medium containing 2% FBS @ 37° C., 5% CO2. […] Vehicle control contained cells, no sample. Medium control contained cells, no sample, 0.03% DMSO (highest DMSO concentration present in samples). […] On day 3, 10 μL MTT (5 mg/mL) were added to each well. Cells were incubated in the presence of MTT for 4 hours @ 37° C., 5% CO2. […] Cells were then incubated overnight @ 37°, 5% CO2. OD570 measurements were taken using BioTek Synergy HT multiplatform microplate reader. Growth inhibition curves IC50s and IC80s were determined using GraphPad Prism 5 statistical software.
# [5] = test system: MOLT-4 (Adult lymphoblastic leukemia); experiment: growth inhibition, MOLT-4; format: cell-based, Human; details: Homo sapiens
# PLC/PRF/5 = experiment: MTT growth inhibition, PLC/PRF/5; format: cell-based, human; details: Homo sapiens, PLC-PRF-5, 78 h
# Method: as §1
# [6] = test system: PC3-MM2 prostate cancer cells; experiment: orthotopic prostate model for in vivo metastases; set-up: species or system Nu/Nu mice; details: 15 mg/kg/day oral gavage
# Method: Nu/Nu mice (8-12 weeks of age) were injected with PC3-MM2 prostate cancer cells into the prostate as described previously in Pettaway et al., Clin Cancer Res 1996, 2:1627-1636, hereby incorporated herein by reference in its entirety. […] All mice were sacrificed by cervical dislocation on about day 42. Tumor volume (measured by caliper), weight, and incidence of regional (celiac or para-aortal) lymph node metastases were recorded.
# K562 (CML) = experiment: growth inhibition (BrdU), K562; format: cell-based, Human; details: Homo sapiens; K562, BrdU, T=72
# Text: (§2) Growth Inhibition. […] T1 values≤T0 values were designated as T, cytotoxicity.
# Hep 3B = experiment: MTT growth inhibition, Hep 3B; format: cell-based, human; details: Homo sapiens, Hep3B, 78 h
# Method: as §1
# H226 = experiment: MTT growth inhibition, Dasatinib-resistant H226; format: cell-based, human; details: Homo sapiens, NCI-H226, H226, 8.0×10^3 cells/well, 1.5% FBS, 78 Hr
# Method: Cell proliferation/growth inhibition was assessed using MTT colorimetric assay.
# On Day 3, 10 μL MTT (5 mg/mL) was added to each well. Cells were then incubated in the presence of MTT for 4 hours at 37° C., appropriate CO2 conditions. After this incubation period, 90 μL 10% SDS(+HCl) was added to each well to lyse cells and solubilize formazan. Cells were then incubated overnight at 37° C., appropriate CO2 conditions.
# The OD570 was measured using microplate reader. Growth inhibition curves and EC50/IC50 was determined using GraphPad Prism 4 statistical software.
# [7] = test system: HT29 (human colon cancer); details: mouse, in vivo
# [8] = test system: CCRF-HSB-2 (Adult lymphoblastic leukemia); experiment: growth inhibition, CCRF-HSB-2; format: cell-based, Human
# Ba/F3 (IL-3 induced) = experiment: MTT growth inhibition, Ba/F3 + IL-3; format: cell-based; details: 96 hrs
# isolated FAK = isolated FAK (Homo sapiens, UniProt Q05397); experiment: titration against isolated FAK; format: biochemical; details: titration data
# isolated FAK, sequence (Q05397 whole entry): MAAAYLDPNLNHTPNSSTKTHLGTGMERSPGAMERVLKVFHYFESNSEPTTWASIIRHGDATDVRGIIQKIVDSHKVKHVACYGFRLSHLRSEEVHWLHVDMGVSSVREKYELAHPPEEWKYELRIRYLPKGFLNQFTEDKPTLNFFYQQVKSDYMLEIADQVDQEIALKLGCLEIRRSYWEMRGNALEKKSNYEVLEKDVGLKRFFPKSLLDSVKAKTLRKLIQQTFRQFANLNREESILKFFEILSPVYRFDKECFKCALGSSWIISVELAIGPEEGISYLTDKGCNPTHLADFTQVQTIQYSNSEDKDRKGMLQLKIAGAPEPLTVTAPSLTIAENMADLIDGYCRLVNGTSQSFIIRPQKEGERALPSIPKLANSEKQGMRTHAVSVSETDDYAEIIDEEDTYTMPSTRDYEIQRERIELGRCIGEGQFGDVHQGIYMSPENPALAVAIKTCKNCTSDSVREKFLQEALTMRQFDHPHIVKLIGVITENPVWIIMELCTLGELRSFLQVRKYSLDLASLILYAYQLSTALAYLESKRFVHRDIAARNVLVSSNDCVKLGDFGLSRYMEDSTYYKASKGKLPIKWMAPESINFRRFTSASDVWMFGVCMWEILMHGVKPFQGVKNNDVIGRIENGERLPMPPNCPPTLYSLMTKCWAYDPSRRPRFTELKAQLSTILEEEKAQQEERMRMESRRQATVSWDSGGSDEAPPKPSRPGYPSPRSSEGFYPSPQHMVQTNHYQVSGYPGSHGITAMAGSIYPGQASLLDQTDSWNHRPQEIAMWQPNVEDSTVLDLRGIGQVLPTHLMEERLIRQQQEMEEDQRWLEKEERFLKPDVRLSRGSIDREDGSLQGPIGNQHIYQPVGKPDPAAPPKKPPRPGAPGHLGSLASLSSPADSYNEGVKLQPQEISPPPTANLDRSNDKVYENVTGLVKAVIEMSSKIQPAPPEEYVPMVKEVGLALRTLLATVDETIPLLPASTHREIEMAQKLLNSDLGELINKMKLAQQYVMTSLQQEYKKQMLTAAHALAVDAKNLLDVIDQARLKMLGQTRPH
# isolated Src = isolated Src (Homo sapiens, UniProt P12931); experiment: titration against isolated Src; format: biochemical; details: titration data
# isolated Src, sequence (P12931 whole entry): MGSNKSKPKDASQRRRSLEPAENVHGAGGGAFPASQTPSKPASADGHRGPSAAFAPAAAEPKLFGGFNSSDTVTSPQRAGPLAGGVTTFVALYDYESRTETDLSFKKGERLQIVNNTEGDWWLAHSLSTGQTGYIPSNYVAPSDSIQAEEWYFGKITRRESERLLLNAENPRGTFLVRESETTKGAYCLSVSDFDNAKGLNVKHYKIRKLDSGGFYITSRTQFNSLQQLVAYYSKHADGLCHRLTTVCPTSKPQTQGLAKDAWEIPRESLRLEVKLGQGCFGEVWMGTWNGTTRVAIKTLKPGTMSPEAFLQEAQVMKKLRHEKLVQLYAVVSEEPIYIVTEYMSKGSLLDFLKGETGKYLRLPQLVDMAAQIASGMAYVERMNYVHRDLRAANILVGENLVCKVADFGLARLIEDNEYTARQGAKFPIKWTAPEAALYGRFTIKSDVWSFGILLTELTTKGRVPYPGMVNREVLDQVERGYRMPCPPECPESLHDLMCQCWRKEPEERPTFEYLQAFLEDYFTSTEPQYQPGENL
# SKOV-3 (Ovarian) = experiment: growth inhibition (BrdU), SKOV-3; format: cell-based, Human; details: Homo sapiens, SK-OV-3; SKOV-3 (Ovarian) cells
# Text: as §2
# L3.6pl cells = experiment: growth inhibition (BrdU), L3.6pl; format: cell-based, human; details: Homo sapiens, L3.6pl, L3.6pl (Pancreas) cells, single agent
# Text: L3.6pl cells are previously described in Trevino et al. Am J Pathol.
smiles,measurement,setting,value
O=C(Cc1ccc(-c2ccccc2)cn1)NCc1cccc(F)c1 [KX1-329],formation of osteoclasts (staining),[1],inhibited
same,number of TRAP-positive osteoclasts (formation),[1],reduced
same,average dB threshold shifts,[2],lower
same,number of resorption pits on the bone slices,[3]; FIG. 20B,reduced
same,number of resorption pits on the bone slices (Toluidine Blue),[3]; FIG. 21B,reduced
same,GI50,"HT29 cell line; HT-29, HT29 (Colon) cells, read-out: GI50",0.338 µM
same,activity at 0.05 µM,"HT29 cell line; HT-29, 50 nM, read-out: HT-29 Growth, % of Control Mean, n = 3",101%
same,activity at 0.5 µM,"HT29 cell line; HT-29, 500 nM, read-out: HT-29 Growth, % of Control Mean, n = 3",< 0%
same,activity at 5 µM,"HT29 cell line; HT-29, 5 uM, read-out: HT-29 Growth, % of Control Mean, n = 3",< 0%
same,number of TRAP-positive osteoclasts (survival),osteoclasts,reduced
same,survival of osteoclasts (staining),osteoclasts,inhibited
same,activity at 0.1 µM,"c-Src 3T3 cells; NIH3T3, 100 nM, read-out: c-Src 3T3 Growth, % of Control Mean, n = 3",96%
same,activity at 1 µM,"c-Src 3T3 cells; NIH3T3, 1.0 uM, read-out: c-Src 3T3 Growth, % of Control Mean, n = 3",< 0%
same,activity at 10 µM,"c-Src 3T3 cells; NIH3T3, 10 uM, read-out: c-Src 3T3 Growth, % of Control Mean, n = 3",< 0%
same,GI50,c-Src 3T3 cells,0.269 µM
same,protein concentration in osteoblast cell lysates,osteoblasts; 0.06 μM and 0.3 μM,increased protein concentration
same,protein concentration in osteoblast cell lysates,osteoblasts; […] and 7.5 μM,reduced protein concentration
same,number of osteoclasts on the bone slices,[4]; FIG. 20A,reduced
same,number of TRAP-positive osteoclasts on the bone slices,[4]; FIG. 21A,reduced
"Cc1nc(Nc2ncc(C(=O)Nc3c(C)cccc3Cl)s2)cc(N2CCN(CCO)CC2)n1 [Dasatinib, reference compound]",IC50,HuH7,1.97 µM
same,IC80,HuH7,7.13 µM
same,IC80,WRL-68,45.6 µM
same,GI50,[5],0.644 µM
same,IC80,PLC/PRF/5,> 50 µM
same,LN metastasis,[6],2/5
same,Tumor incidence,[6],5/6
same,Tumor weight (g) Median,[6],0.43 g
same,GI50,K562 (CML),< 0.001 µM
same,IC80,Hep 3B,> 50 µM
same,IC50,H226,0.163 µM
same,IC80,H226,7.76 µM
same,tolerability (reason for dose lowering at day 5),[7],weight loss
same,GI50,[8],Inactive (n = 1)
same,GI50,Ba/F3 (IL-3 induced),does not inhibit; also recorded: Inactive
CN1CCN(CCOc2ccc(-c3ccc(CC(=O)NCc4cccc(F)c4)nc3)c(F)c2)CC1 [KX2-394],IC50,isolated FAK,> 48 µM
same,IC50,isolated Src,5 µM
same,GI50,c-Src 3T3 cells,0.013 µM
"CC(=O)O[C@H]1C(=O)[C@@]2(C)[C@H]([C@H](OC(=O)c3ccccc3)[C@]3(O)C[C@H](OC(=O)[C@H](O)[C@@H](NC(=O)c4ccccc4)c4ccccc4)C(C)=C1C3(C)C)[C@]1(OC(C)=O)CO[C@@H]1C[C@@H]2O [taxol, paclitaxel, reference compound]",GI50,SKOV-3 (Ovarian),0.0039 µM
"Nc1ccn([C@@H]2O[C@H](CO)[C@@H](O)C2(F)F)c(=O)n1 [Gemcitabine, gemcitabine, reference compound]",GI50,L3.6pl cells,0.002 µM
